{
  "source": "paper PMC6829886",
  "about": "“Inhibition of Non-Small Cell Lung Cancer Cells by Oxy210, an Oxysterol-Derivative that Antagonizes TGFβ and Hedgehog Signaling” (Cells, 2019)",
  "key": {"[1]": {"test_system": "Hh signaling (Gli1, Ptch1 mRNA) in NIH3T3-E1 cells", "assay": "Ligand-induced Hh target gene expression (Q-RT-PCR) in NIH3T3 cells treated with CAPAN-1 conditioned medium", "assay_type": "cell-based", "description": "Growth medium in confluent […] tissue culture plates of CAPAN-1 cells was replaced with 10 mL of fresh growth medium and cells incubated for a total of 7 days. Conditioned medium (CM) containing Shh and Ihh was collected and spun down to remove any detached cells and debris, aliquoted, and stored frozen at −80 °C (21).\nTotal RNA was extracted with the RNeasy Plus Mini Kit from Qiagen (Hilden, Germany) according to the manufacturer’s instructions. One microgram of RNA was reverse-transcribed using an iScript Reverse Transcription Supermix from Bio-Rad Laboratories (Hercules, CA, USA) to make single-stranded cDNA. The cDNAs were then mixed with Qi SYBR Green Supermix (Bio-Rad) for quantitative RT-PCR assay using a Bio-Rad I-cycler IQ quantitative thermocycler. All PCR samples were prepared in triplicate wells in a 96-well plate. After 40 cycles of PCR, melt curves were examined in order to ensure primer specificity. Fold changes in gene expression were calculated using the ΔΔCt method. Primers used for mouse were as follows: Oaz1 (5′-CCACTGCTTCGCCAGAGAG-3′) and (5′-CCCGGACCCAGGTTACTA-3′), Gli1 (5′- […]-3′ and 5′- GCT GATCCAGCCTAAGGTTCTC-3′), Ptch1 (5′-CCATCGGCGACAAGAACC-3′ and 5′-[…]-3′), Thbs1 (5′-[…]-3′ and 5′-CGGGGATCAGGTTGGCATT-3′), Cryab (5′-[…]-3′ and 5′-[…]-3′), Egr2 (5′-[…]-3′ and 5′-[…]-3′), CTGF (5′-GGGCCTCTTCTGCGATTTC-3′ and 5′-[…]-3′).\nStatistical analyses were performed using the StatView 5 program (SAS Institute, Cary, NC, USA). All p values were calculated using ANOVA and Fisher’s projected least significant difference (PLSD) significance test. A value of p < 0.05 was considered significant. The IC 50 dose-response curves shown in Figure 4b and Figure 7a–c were modeled using a five-parameter logistic model. This model allows for asymmetric curves and automatically estimates the mean maximum and minimum response. Based on this model, IC 50 values were estimated corresponding to the dose halfway between min and max response. Models of dose versus response and dose versus log response were also evaluated (see Supplementary Materials). The R square statistic was computed as a measure of model fit.\nFigure 4 Inhibition of ligand-induced Hedgehog and TGFβ signaling in mouse fibroblast cells. NIH3T3 cells were pretreated for 2 h with Oxy210 or various inhibitors as indicated in DMEM containing 5% FBS. […] After 72 h, RNA was extracted and analyzed by Q-RT-PCR for the expression of Hh target genes Gli1 and Ptch1 and normalized to Oaz1 expression (a,b). […] After 48 h, RNA was extracted and analyzed by Q-RT-PCR for the expression of TGFβ target genes as indicated and normalized to Oaz1 expression. […] Luciferase activity was measured and normalized to the Renilla luciferase activity. […]"}, "[2]": {"test_system": "Gli responsive luciferase reporter (endogenous Gli)", "assay": "Gli responsive luciferase reporter in Sufu-/- cells", "assay_type": "cell-based, mouse", "details": "72 hrs", "description": "NIH3T3-E1 cells cultured in 24 well-plates at 90% confluence were transiently transfected with 0.1 μg of Smad response-element reporter (SBE-Luciferase) plasmid (Qiagen), or with 0.1 μg of Gli response-element reporter (pGL3b-8xGli-Luciferase) plasmid, and 10 ng of pSV40-Renilla-Luciferase plasmid (Promega, Madison, WI, USA) with or without co-transfection with 10ng of Gli1 overexpression vector, pSRα-Gli1 using a Lipofectamine LTX Plus transfection reagent, as previously described. Sufu-/- cells cultured in 24 well-plates at 90% confluence were transiently transfected with 0.1μg of pGL3b-8xGli-Luciferase plasmid, and 10 ng of pSV40-Renilla-Luciferase plasmid. 6 hrs after transfection, cells were treated with test agents for 72 h. […] Then the firefly and Renilla luciferase activities were measured using a dual luciferase kit (Promega) and a GloMax-96 Microplate Luminometer (Promega) or a plate reader-SpectraMax iD3 (Molecular Devices, San Jose, CA, USA). […]\nFigure 5 Oxy210 acts downstream of Smo. […] After 72 h, RNA was extracted and analyzed by Q-RT-PCR for the expression of Hh target genes Gli1 and Hip, normalized to Oaz1 expression. […] Luciferase activity was measured and normalized to the Renilla luciferase activity. […]"}},
  "data": [
    {"smiles": "C[C@]12CC[C@H]3[C@@H](CC=C4C[C@@H](O)CC[C@@]43C)[C@@H]1CC[C@@H]2[C@](C)(O)CCc1cccnc1", "note": "[Oxy210, (3S,8S,9S,10R,13S,14S,17S)-17-((R)-2-hydroxy-4-(pyridin-3-yl)butan-2-yl)-10,13-dimethyl-2,3,4,7,8,9,10,11,12,13,14,15,16,17-tetradecahydro-1H-cyclopenta[a]phenanthren-3-ol]", "values": [
      {"measurement": "IC10 Estimate, dataset 1 - Fig 4b", "setting": "[1]; Gli1 mRNA, original scale Y, logistic curve model", "result": 0.33, "unit": "µM"},
      {"measurement": "IC90", "setting": "[1]; Mus musculus, Gli1 mRNA, original scale Y, logistic curve model, read-out: IC90 Estimate, dataset 1 - Fig 4b", "result": 5.5, "unit": "µM"},
      {"measurement": "mRNA expression of ligand-induced Hh target genes Gli1 and Ptch1", "setting": "[1]; NIH3T3-E1 cells, CAPAN-1 CM, 72 h", "result": "robustly inhibited"},
      {"measurement": "IC50", "setting": "[1]; NIH3T3-E1 cells, CAPAN-1 CM, 72 h, Gli1 mRNA, five-parameter logistic model, ± SE, read-out: IC50 for inhibition of Gli1 expression", "result": "1.83 ± 0.21", "unit": "µM"},
      {"measurement": "activity of Gli responsive luciferase reporter", "setting": "[2]", "result": "significantly inhibited"}
    ]}
  ]
}
